Publication PMC9944328 (Nature Communications, 2023)
Values joined by “and” are separate entries in the source; they are usually repeats but may differ in a detail not shown here. Identical values can stand only once.

Target: SSTR2 (Homo sapiens, UniProt P30874)
Test: SSTRs Gi-mediated cAMP inhibition, GloSensor, HEK293, 5 μM forskolin, 15 min room temperature (SSTR2 wild-type);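 as to Bottom (best-fit value): normalized to the maximal wild-type response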;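 as to Bottom (best-fit): normalized to the maximal wild-type response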;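 as to Span (best-fit value): normalized to the maximal wild-type response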;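 as to Span (best-fit): normalized to the maximal wild-type response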;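 as to Top (best-fit value): normalized to the maximal wild-type response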;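 as to Top (best-fit): normalized to the maximal wild-type response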
Type: cell-based
Parameters: Best-fit Top, cAMP inhibition / Span, cAMP inhibition / Best-fit Bottom / Best-fit Top / Best-fit Span / Bottom / Span (best-fit value), cAMP inhibition / Top (best-fit value), cAMP inhibition: scale not given here
Settings: for Best-fit Top, cAMP inhibition / Span, cAMP inhibition: octreotide
Protocol: The levels of the intracellular 3′, 5′-cyclic AMP (cAMP) were measured by the GloSensor cAMP assay (Promega) as described in the previous studies[28],[41] which has been widely used. The human full-length SSTRs and mutants were cloned into the pcDNA3.1+ vector with a HA signal sequence followed by a Flag tag at the N-terminus. HEK293 cells (ATCC, CRL-1573) were seeded into 6-well microplates at a density of 1.0 × 10^6 cells/well and cultured for 24 h at 37 °C with 5% CO2. Cells were then co-transfected with SSTR wild-type or mutants and GloSensor plasmids. After 24 h of transfection, the cells were dissociated with TrypLE™ Express Enzyme (1X) (Thermo Fisher Scientific) and collected by centrifugation at 500 × g for 5 min. Then the collected cells were suspended in Hank’s balanced salt solution [HBSS (Thermo Fisher Scientific)] supplemented with […] (YEASEN), and then the suspension cells were seeded into 96-well plates with 90 μl/well. After incubating at room temperature for 40 min, 5 μM forskolin and ligands diluted in HBSS were added to each well and the plates were incubated at room temperature for 15 min. […] were measured using the Synergy H1 microplate reader (BioTek) and the data presented are means of at least three independent experiments.

[1] = cAMP inhibition, SSTR2 WT-1 (run 1)
[2] = cAMP inhibition, SSTR2 WT-2 (run 2)
[3] = cAMP inhibition, SSTR2 WT-3 (run 3)
[4] = SSTR2 WT-1, run 1 (WT of each mutant's set)
[5] = SSTR2 WT-2, run 2 (WT of each mutant's set)
[6] = SSTR2 WT-3, run 3 (WT of each mutant's set)

Sequence of SSTR2 (P30874 whole entry): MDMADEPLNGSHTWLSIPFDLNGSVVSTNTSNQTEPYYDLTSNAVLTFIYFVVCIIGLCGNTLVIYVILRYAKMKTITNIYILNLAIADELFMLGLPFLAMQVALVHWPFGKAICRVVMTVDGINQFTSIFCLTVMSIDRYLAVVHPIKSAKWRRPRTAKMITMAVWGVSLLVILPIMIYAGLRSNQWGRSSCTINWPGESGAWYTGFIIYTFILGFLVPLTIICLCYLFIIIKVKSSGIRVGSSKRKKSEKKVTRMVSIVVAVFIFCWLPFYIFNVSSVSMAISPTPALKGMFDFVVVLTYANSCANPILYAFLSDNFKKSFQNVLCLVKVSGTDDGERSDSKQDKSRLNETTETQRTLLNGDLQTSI

Compound: C[C@@H](O)[C@@H]1NC(=O)[C@H](CCCCN)NC(=O)[C@@H](Cc2c[nH]c3ccccc23)NC(=O)[C@H](Cc2ccccc2)NC(=O)[C@@H](NC(=O)[C@H](N)Cc2ccccc2)CSSC[C@@H](C(=O)N[C@H](CO)[C@@H](C)O)NC1=O [octreotide]
- Best-fit Top (WT-2 of K291A set): 102.4
- Best-fit Bottom (WT-2 of L290A set): 5.269
- Best-fit Span (WT-2 of L290A set): 95.18
- Best-fit Top (WT-2 of L290A set): 100.5
- Bottom (best-fit) (WT-2 of N276A set): 2.714
- Span (best-fit) (WT-2 of N276A set): 101.1
- Top (best-fit) (WT-2 of N276A set): 103.8
- Bottom (best-fit) (WT-2 of P220A set): 2.714
- Span (best-fit) (WT-2 of P220A set): 101.1
- Top (best-fit) (WT-2 of P220A set): 103.8
- Best-fit Bottom (WT-2 of S279A set): -6.301
- Best-fit Span (WT-2 of S279A set): 114.5
- Best-fit Top (WT-2 of S279A set): 108.2
- Bottom (best-fit) (WT-2 of W269A set): -0.5171
- Span (best-fit) (WT-2 of W269A set): 111.1
- Top (best-fit) (WT-2 of W269A set): 110.6
- Best-fit Bottom (WT-2 of Y302A set): -0.5171
- Best-fit Span (WT-2 of Y302A set): 111.1
- Best-fit Top (WT-2 of Y302A set): 110.6
- Bottom (best-fit value) (WT-3, run 3, batch of I284A): 5.269
- Span (best-fit value) (WT-3, run 3, batch of I284A): 95.18
- Top (best-fit value) (WT-3, run 3, batch of I284A): 100.5
- Bottom (best-fit value) (WT-3, run 3, batch of P286A): 0.3403
- Span (best-fit value) (WT-3, run 3, batch of P286A): 101
- Top (best-fit value) (WT-3, run 3, batch of P286A): 101.3
- Bottom (best-fit value) (WT-3, run 3, batch of S285A): 0.3403
- Span (best-fit value) (WT-3, run 3, batch of S285A): 101
- Top (best-fit value) (WT-3, run 3, batch of S285A): 101.3
- Bottom (best-fit value) (WT-3, run 3, batch of T194A): 9.705
- Bottom (best-fit value) (WT-3, run 3, batch of T287A): 0.3403
- Span (best-fit value) (WT-3, run 3, batch of T287A): 101
- Top (best-fit value) (WT-3, run 3, batch of T287A): 101.3
- Bottom (best-fit value) (WT-3, run 3, batch of W188A): 0.3403
- Span (best-fit value) (WT-3, run 3, batch of W188A): 101
- Top (best-fit value) (WT-3, run 3, batch of W188A): 101.3
- Best-fit Bottom (WT-3 of D295A set): 5.262
- Best-fit Span (WT-3 of D295A set): 106.6
- Best-fit Top (WT-3 of D295A set): 111.9
- Span (best-fit) (WT-3 of F208A set): 108.3
- Bottom (best-fit) (WT-3 of F265A set): 9.705
- Span (best-fit) (WT-3 of F265A set): 95.34
- Top (best-fit) (WT-3 of F265A set): 105
- Bottom (best-fit) (WT-3 of F272A set): 21.28
- Span (best-fit) (WT-3 of F272A set): 73.55
- Top (best-fit) (WT-3 of F272A set): 94.83
- Best-fit Bottom (WT-3 of F294A set): -6.301
- Best-fit Span (WT-3 of F294A set): 114.5
- Best-fit Top (WT-3 of F294A set): 108.2
- Best-fit Bottom (WT-3 of K291A set): 9.705
- Best-fit Span (WT-3 of K291A set): 95.34
- Best-fit Top (WT-3 of K291A set): 105
- Best-fit Bottom (WT-3 of L290A set): 0.5044
- Best-fit Span (WT-3 of L290A set): 101.8
- Best-fit Top (WT-3 of L290A set): 102.3
- Bottom (best-fit) (WT-3 of N276A set): 9.705
- Span (best-fit) (WT-3 of N276A set): 95.34
- Top (best-fit) (WT-3 of N276A set): 105
- Bottom (best-fit) (WT-3 of P220A set): 9.705
- Span (best-fit) (WT-3 of P220A set): 95.34
- Top (best-fit) (WT-3 of P220A set): 105
- Best-fit Bottom (WT-3 of S279A set): 5.269
- Best-fit Span (WT-3 of S279A set): 95.18
- Best-fit Top (WT-3 of S279A set): 100.5
- Bottom (best-fit) (WT-3 of W269A set): 5.108
- Span (best-fit) (WT-3 of W269A set): 89.16
- Top (best-fit) (WT-3 of W269A set): 94.27
- Best-fit Bottom (WT-3 of Y302A set): 5.269
- Best-fit Span (WT-3 of Y302A set): 95.18
- Best-fit Top (WT-3 of Y302A set): 100.5
- Span (best-fit value) [1]: 89.16 and 95.18 and 102.3 and 73.55 and 108.3
- Top (best-fit value) [1]: 94.27 and 100.5 and 105.4 and 94.83 and 106.4
- Span (best-fit value) [2]: 114.5 and 95.18 and 103.8 and 101.1
- Top (best-fit value) [2]: 108.2 and 100.5 and 107.6 and 103.8 and 95.77
- Span (best-fit value) [3]: 114.5 and 89.16 and 108 and 95.34 and 149.7
- Top (best-fit value) [3]: 108.2 and 94.27 and 109.2 and 105 and 143.2 and 106.4
- Top (best-fit) (cAMP inhibition, SSTR2-WT, run 1): 101.1
- Top (best-fit) (cAMP inhibition, SSTR2-WT, run 2): 101.1
- Top (best-fit) (cAMP inhibition, SSTR2-WT, run 3): 96.66
- Top (best-fit) (cAMP inhibition, SSTR2-WT, run 4): 105.3
- Best-fit Top, cAMP inhibition [4]: 94.27 and 103.3 and 100.5 and 96 and 105 and 108.2
- Span, cAMP inhibition [4]: 89.16 and 99.34 and 96.76 and 114.5
- Best-fit Top, cAMP inhibition [5]: 103.8 and 107.6 and 101.1 and 105.4 and 106.4
- Span, cAMP inhibition [5]: 101.1 and 103.8 and 99.15 and 102.3 and 108.3
- Best-fit Top, cAMP inhibition [6]: 103.8 and 101.3 and 105 and 107.6 and 103.3
- Span, cAMP inhibition [6]: 101.1 and 101 and 103.8 and 99.34
